The test system of this test is 996 bp segment of human myeloid leukocyte c-jun cDNA. Briefly: PCR amplification of c-jun cDNA with diol additives, standard cycling. It is filed as biochemical. The conditions noted are these: c-jun; for Effective range: concentration interval over which densitometric volume of target band is at least 50% of maximum volume; for Potency: normalized maximum densitometric volume of target band: 1,5-Pentanediol = 1. The protocol:
Amplification reactions were carried out under the following general conditions. Those skilled in the art will appreciate, however, that to the extent that the conditions (set forth in this application) required for specific experiments described in this example were inconsistent with the following general conditions, limited exceptions to the following general conditions were made The general conditions were as follows: 10 Mm Tris-HCl (Ph 8.8), 50 Mm KCl, 1.5 Mm MgCl2, 0.01% (w/v) gelatin, 0.2 Um primers, 0.06 ng/ul template, 0.2 Mm each Dntp, 0.04 U/ul Taq polymerase. The templates used were bovine brain N-WASP cDNA (1518 bp), a 996 bp segment of human myeloid leukocyte c-jun cDNA, a 511 bp segment of human prostate-specific membrane antigen (PSM) cDNA, and bovine brain glycolipid transfer protein (GTP) cDNA (660 bp). cDNA synthesis was carried out using the FIRST-STRAND® RT-PCR kit from Stratagene on the respective mRNAs purchased from Clontech. All amplification reactions for gene were carried out using a single master batch of cDNA. Taq polymerase and dNTPs were obtained from Stratagene. Primers were obtained from Genosys. Primer melting temperatures (Tms) were calculated using the Genosys oligo calculator program. The sequences of the primers were as follows.
Polymerase chain reactions for the N-WASP gene were conducted on a ROBOCYCLER® Gradient 40 thermal cycler from Stratagene using 100 ul solutions in 600 ul thin-walled tubes. For expediency, amplification of c-jun, PSM and GTP was carried out in a ROBOCYCLER® Gradient 96 thermal cycler from Stratagene using 50 ul solutions in 200 ul thin-walled tubes. Prior to Taq polymerase addition, a hotstart protocol was carried out that consisted of an initial cycle of 95° C. for 5 minutes (11) to ensure complete first-strand separation, followed by a cycle of 54° C. for 5 minutes. Amplifications were run for 30 cycles. […] Extension was done at 72° C. for periods depending on target length: 2 minutes for N-WASP, 1.5 minutes for c-jun and GTP, and 1 minute for PSM. Annealings were carried out either at fixed concentrations of additives using temperature gradients of 38-56° C. for N-WASP and 44-58° C. for the other targets, or at varying concentrations of additives using fixed temperatures of 41° C. for N-WASP, 50° C. for c-jun and PSM, and 54° C. for GTP.
Amplification products were analyzed by agarose gel electrophoresis on 0.8% agarose gels in which 20 ul reaction products were loaded with 4 ul loading buffer. Gels were stained with ethidium bromide, visualized on a UV transilluminator (Fisher), and documented by photography. Densitometric quantitation of amplification products was carried out using IMAGE SCANNER® and IMAGE MASTER® software from Amersham Pharmacia. Background correction was done using the software's rolling disc method.
With PSM, 1,2-propanediol, 1,2-butanediol, 1,3-butanediol, 1,4-butanediol and glycerol were tested; with c-jun, ethylene glycol and 1,3-propanediol were also tested in addition to these compounds. […] The following additive concentrations were tested using these annealing temperatures: 1,2-propanediol—0.5, 0.8, 1.1, 1.4, 1.7 and 2.0M; 1,2-butanediol—0.1, 0.3, 0.5, 0.6, 0.7 and 0.8M; 1,3-butanediol—0.1, 0.3, 0.5, 0.6, 0.9, 1.1, 1.2M; 1,4-butanediol—0.1 to 1.1M in 0.2M intervals; 1,5-pentanediol—0.1-0.6M in 0.1M intervals; glycerol—0.5 to 1.9M in 0.2M intervals, and 2.2M.

These results are taken from US7772383B2, “Chemical PCR: Compositions for enhancing polynucleotide amplification reactions” (The Trustees of Princeton University, priority 2002, dated 2010).

Regarding `CCC(O)CO` (stereo not shown) [1,2-Butanediol], the “Effective range” value was in the range of 0.27 to 0.74 M and the Potency turned out to be 0.64.
The like results for `OCCCCCO` [1,5-Pentanediol] were, in that order, 0.17 to 0.45 M and 1.00.
